The results in this text go back to the supplement of paper PMC10331698.

± gives the standard deviation of the averaged measurements.

Common to all, as to experiment: level (log10 ratio to DMSO vehicle control); higher = higher biomarker level / cell amount than vehicle control
Common to all, as to settings: in DMSO

Compound in test [1]: C=C(C)C(=O)OCCC(F)(F)C(F)(F)C(F)(F)C(F)(F)C(F)(F)C(F)(F)F [6:2 Fluorotelomer methacrylate]
The method, then:
(§1)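 BioMAP Diversity Plus panel of 12 human primary cell co-culture systems (3C, 4H, LPS, SAg, BT, BF4T, BE3C, CASM3C, HDF3CGF, KF3CT, MyoF, Mphg). Compounds were added 1 h before stimulation and left for 24 h (MyoF 48 h; BT 72 h for soluble read-outs or 6 d for IgG). Biomarkers were read by ELISA, cytotoxicity by SRB, PBMC viability and proliferation by Alamar Blue. Each well value was divided by the mean of 8 DMSO control wells on the same plate and log10 transformed; duplicate blinded samples were tested at 4 concentrations.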

Compound in test [2]: FC(F)(F)C(F)(F)C(F)(F)C(F)(F)C(F)(F)C(F)(F)CC1CO1 [3-(Perfluorohexyl)-1,2-epoxypropane]
The protocol:
as §1

Compound in a further test: NC(=O)C(F)(F)C(F)(F)C(F)(F)C(F)(F)F [Nonafluoropentanamide]
The method, then:
as §1

Compound in test [3]: NS(=O)(=O)C(F)(F)C(F)(F)C(F)(F)C(F)(F)C(F)(F)C(F)(F)F [Perfluorohexanesulfonamide]
The protocol:
as §1

Compound in test [4]: O=C(O)C(F)(F)C(F)(F)C(F)(F)C(F)(F)C(F)(F)C(F)(F)C(F)(F)C(F)(F)C(F)(F)C(F)F [11-H-Perfluoroundecanoic acid]
The method, then: as §1

Compound in test [5]: O=C(O)C=CC(F)(C(F)(F)F)C(F)(F)F [3-(Perfluoroisopropyl)-2-propenoic acid]
The method, then: as §1

Compound in test [6]: O=S(=O)(F)C(F)(F)C(F)(F)C(F)(F)C(F)(F)C(F)(F)C(F)(F)C(F)(F)C(F)(F)F [Perfluorooctanesulfonyl fluoride]
The protocol:
as §1

As for 3C:CCL2/MCP-1, the “level (log10)” value is 0.01 ± 0.051 in test [1] (6700 nM); -0.0025 ± 0.016 in test [1] (20000 nM); 0.022 ± 0.028 in test [1] (60000 nM); 0.011 ± 0.02 in test [2] (6700 nM); -0.004 ± 0.0014 in test [2] (20000 nM); 0.021 ± 0.031 in test [2] (60000 nM). In addition, the “level (log10)” value in the test with Nonafluoropentanamide (6700 nM) was -0.0045 ± 0.016; in the test with Nonafluoropentanamide (20000 nM), -0.0125 ± 0.018; with Nonafluoropentanamide (60000 nM), 0.011 ± 0.058; in test [3] (6700 nM) it was 0.0075 ± 0.0021; in test [3] (20000 nM) it was 0.001 ± 0.014; in test [3] (60000 nM), -0.0255 ± 0.032. In addition, the “level (log10)” value is -0.0085 ± 0.0035 in test [4] (6700 nM); 0 ± 0.017 in test [4] (20000 nM); 0.0025 ± 0.022 in test [5] (6700 nM); -0.009 ± 0.0014 in test [5] (20000 nM); 0.019 ± 0.02 in test [5] (60000 nM); -0.014 ± 0.0014 in test [6] (6700 nM). Besides, the results for the “level (log10)” value in test [6] (20000 nM) and in test [6] (60000 nM) were -0.0215 ± 0.011 and 0.001 ± 0.021, respectively.

3C:CD54/ICAM-1: the “level (log10)” value is -0.003 ± 0.0042 in test [1] (6700 nM); -0.014 ± 0.011 in test [1] (20000 nM); 0.0025 ± 0.015 in test [1] (60000 nM); -0.0115 ± 0.00071 in test [2] (6700 nM); -0.0275 ± 0.015 in test [2] (20000 nM); -0.015 ± 0.011 in test [2] (60000 nM). The “level (log10)” value with Nonafluoropentanamide (6700 nM) was -0.0155 ± 0.005; with Nonafluoropentanamide (20000 nM), -0.0025 ± 0.0092; in the test with Nonafluoropentanamide (60000 nM) it was 0.005 ± 0.021; in test [3] (6700 nM), 0.013 ± 0.011; in test [3] (20000 nM), 0.002 ± 0.0085; in test [3] (60000 nM), 0.0065 ± 0.0078. In addition, the “level (log10)” value in test [4] (6700 nM) was -0.012 ± 0.023; in test [4] (20000 nM) it was -0.019 ± 0.0014; in test [5] (6700 nM) it was -0.013 ± 0.033; in test [5] (20000 nM), -0.0185 ± 0.025; in test [5] (60000 nM), -0.003 ± 0.013; in test [6] (6700 nM), -0.0025 ± 0.011. The “level (log10)” value was -0.007 ± 0.0042 in test [6] (20000 nM) and 0.005 ± 0.0028 in test [6] (60000 nM).

Take 3C:CD62E/E-Selectin: the “level (log10)” value in test [1] (6700 nM) was -0.0145 ± 0.015; in test [1] (20000 nM) it was -0.01 ± 0.033; in test [1] (60000 nM), -0.0135 ± 0.035; in test [2] (6700 nM) it was -0.035 ± 0.013; in test [2] (20000 nM), -0.0375 ± 0.005; in test [2] (60000 nM) it was -0.0415 ± 0.0078. Further, the “level (log10)” value in the test with Nonafluoropentanamide (6700 nM) was -0.014 ± 0.025; with Nonafluoropentanamide (20000 nM) it was -0.017 ± 0.031; with Nonafluoropentanamide (60000 nM), 0.0085 ± 0.011; in test [3] (6700 nM), -0.0065 ± 0.016; in test [3] (20000 nM) it was -0.034 ± 0.0014; in test [3] (60000 nM), -0.0595 ± 0.013. Moreover, the “level (log10)” value was -0.0045 ± 0.025 in test [4] (6700 nM); 0.0205 ± 0.013 in test [4] (20000 nM); -0.009 ± 0.013 in test [5] (6700 nM); -0.031 ± 0.0085 in test [5] (20000 nM); -0.0155 ± 0.013 in test [5] (60000 nM); -0.006 ± 0.0057 in test [6] (6700 nM). Further, the “level (log10)” value in test [6] (20000 nM) is -0.01; in test [6] (60000 nM), -0.006 ± 0.024.

In the case of 3C:CD106/VCAM-1, the “level (log10)” value in test [1] (6700 nM) was -0.0265 ± 0.026; in test [1] (20000 nM) it was -0.029 ± 0.037; in test [1] (60000 nM), -0.0185 ± 0.043; in test [2] (6700 nM), -0.0145 ± 0.018; in test [2] (20000 nM) it was -0.033 ± 0.025; in test [2] (60000 nM), -0.0395 ± 0.011. For the same test system, the “level (log10)” value in the test with Nonafluoropentanamide (6700 nM) is -0.024 ± 0.028; with Nonafluoropentanamide (20000 nM) it was -0.0135 ± 0.039; with Nonafluoropentanamide (60000 nM), -0.016 ± 0.0071; in test [3] (6700 nM), -0.008 ± 0.0014; in test [3] (20000 nM), -0.0125 ± 0.0092; in test [3] (60000 nM), -0.025 ± 0.016. Moreover, the “level (log10)” value is -0.0105 ± 0.023 in test [4] (6700 nM); -0.011 ± 0.0099 in test [4] (20000 nM); -0.002 ± 0.03 in test [5] (6700 nM); -0.039 ± 0.037 in test [5] (20000 nM); -0.0205 ± 0.00071 in test [5] (60000 nM); -0.009 ± 0.0099 in test [6] (6700 nM). The “level (log10)” value in test [6] (20000 nM) is -0.003 ± 0.013; in test [6] (60000 nM), -0.01 ± 0.023.

In the case of 3C:CD141/Thrombomodulin, the “level (log10)” value in test [1] (6700 nM) is -0.0155 ± 0.042; in test [1] (20000 nM) it was -0.014 ± 0.048; in test [1] (60000 nM), -0.072 ± 0.014; in test [2] (6700 nM), -0.0025 ± 0.028; in test [2] (20000 nM), -0.0095 ± 0.00071; in test [2] (60000 nM), -0.0075 ± 0.0035. In addition, the “level (log10)” value with Nonafluoropentanamide (6700 nM) was -0.0635 ± 0.074; with Nonafluoropentanamide (20000 nM) it was -0.0235 ± 0.0035; with Nonafluoropentanamide (60000 nM), -0.069 ± 0.051; in test [3] (6700 nM), -0.04 ± 0.023; in test [3] (20000 nM), -0.045 ± 0.02; in test [3] (60000 nM), 0.0135 ± 0.033. Besides, the “level (log10)” value in test [4] (6700 nM) is -0.0065 ± 0.005; in test [4] (20000 nM) it was -0.0255 ± 0.033; in test [5] (6700 nM), -0.0125 ± 0.023; in test [5] (20000 nM) it was -0.006 ± 0.0057; in test [5] (60000 nM) it was 0.0045 ± 0.016; in test [6] (6700 nM) it was -0.021 ± 0.0099. The “level (log10)” value in test [6] (20000 nM) is -0.0235 ± 0.026; in test [6] (60000 nM), -0.0245 ± 0.028.

Regarding 3C:CD142/Tissue Factor, the “level (log10)” value in test [1] (6700 nM) was 0.0295 ± 0.0021; in test [1] (20000 nM), 0.034 ± 0.013; in test [1] (60000 nM), 0.021 ± 0.054; in test [2] (6700 nM), -0.042 ± 0.027; in test [2] (20000 nM), -0.05 ± 0.028; in test [2] (60000 nM), -0.0195 ± 0.029. The “level (log10)” value with Nonafluoropentanamide (6700 nM) was -0.049 ± 0.041; with Nonafluoropentanamide (20000 nM), -0.0275 ± 0.04; with Nonafluoropentanamide (60000 nM) it was -0.067 ± 0.044; in test [3] (6700 nM) it was 0.0005 ± 0.0078; in test [3] (20000 nM), -0.0285 ± 0.032; in test [3] (60000 nM) it was -0.0365 ± 0.029. Also, the “level (log10)” value in test [4] (6700 nM) is -0.011 ± 0.011; in test [4] (20000 nM), -0.0245 ± 0.013; in test [5] (6700 nM), -0.018 ± 0.065; in test [5] (20000 nM) it was -0.036 ± 0.048; in test [5] (60000 nM), 0.003 ± 0.061; in test [6] (6700 nM), -0.0085 ± 0.005. For the same test system, the “level (log10)” value in test [6] (20000 nM) was -0.0175 ± 0.0021; in test [6] (60000 nM), -0.0105 ± 0.0021.

For 3C:CXCL8/IL-8, the “level (log10)” value in test [1] (6700 nM) is 0.018 ± 0.021; in test [1] (20000 nM), 0.024 ± 0.016; in test [1] (60000 nM) it was 0.0505 ± 0.018; in test [2] (6700 nM) it was -0.002 ± 0.0085; in test [2] (20000 nM), -0.004 ± 0.0014; in test [2] (60000 nM), 0.035 ± 0.042. Moreover, the “level (log10)” value was -0.001 ± 0.016 with Nonafluoropentanamide (6700 nM); -0.0145 ± 0.0092 with Nonafluoropentanamide (20000 nM); 0.0345 ± 0.04 in the test with Nonafluoropentanamide (60000 nM); 0.011 ± 0.023 in test [3] (6700 nM); 0.0415 ± 0.0092 in test [3] (20000 nM); 0.024 ± 0.013 in test [3] (60000 nM). Further, the “level (log10)” value in test [4] (6700 nM) is 0.012 ± 0.0014; in test [4] (20000 nM), 0.011 ± 0.0071; in test [5] (6700 nM) it was -0.001 ± 0.038; in test [5] (20000 nM) it was -0.0275 ± 0.0092; in test [5] (60000 nM), 0.028 ± 0.033; in test [6] (6700 nM) it was -0.006 ± 0.0085. Further, the “level (log10)” value in test [6] (20000 nM) stood at 0.002; in test [6] (60000 nM) it was 0.0145 ± 0.019.
